Where two headings read alike, the source gives them in different places.
What was measured:
[1] = system: statin-treated patients with atherosclerotic coronary or vascular disease or coronary risk equivalent; test: Major adverse cardiovascular events (composite clinical endpoint); assay type: in vivo, human; settings: 14-month study; for Cardiovascular death (number of events) / Coronary revascularization procedure (number of events) / Myocardial infarction (number of events) / Subjects experiencing a composite clinical cardiovascular endpoint (major adverse cardiovascular events): ezetimibe N=165, niacin N=160
Excerpt: (§1) Endpoints: The predefined primary endpoint was the between-group difference in the change in mean CIMT after 14 months. Secondary endpoints included the change in lipid values, a composite endpoint consisting of major adverse cardiovascular events (coronary heart disease death, myocardial infarction, myocardial revascularization, admission to the hospital for an acute coronary syndrome), drug discontinuation due to adverse effects, and health-related quality of life (Schweikert et al., 2008). Clinical cardiovascular endpoints were adjudicated by consensus of two members of the data advisory committee blinded to treatment assignment.

[2] = system: statin-treated patients with atherosclerotic coronary or vascular disease or coronary risk equivalent; test: Fasting plasma lipids, glucose and C-reactive protein during treatment; settings: for HDL-C / LDL-C / Total Cholesterol / Final change in HDL-C / Final change in LDL-C: added to statin; for HDL-C / LDL-C / Total Cholesterol / Total cholesterol, final values / HDL-C, final values / LDL-C, final values: mean ± SD; for C-reactive protein / Triglycerides: median (inter-quartile range); for Change from baseline in LDL-C and triglycerides: 315 patients, baseline to final; for Final change in HDL-C / Final change in LDL-C: baseline to 14 months; for Total cholesterol, final values / HDL-C, final values / LDL-C, final values / Triglycerides, final values / hsCRP, final values: study completion; for Total cholesterol, final values: n=315 (ezetimibe 161, niacin 154), last observation carried forward; for HDL-C, final values / LDL-C, final values / Triglycerides, final values / hsCRP, final values: n=315; for Triglycerides, final values / hsCRP, final values: median (interquartile range);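 as to all read-outs here: plasma drawn after an overnight fast, LDL-C determined by direct assay and C-reactive protein by high-sensitivity immunoturbidimetry with monoclonal anti-CRP antibodies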
Method: Study population: This prospective, randomized, parallel group, open-label, blinded endpoint study was conducted at two centers, Walter Reed Army Medical Center, a university-affiliated, suburban, tertiary care military medical center, and the Washington Adventist Hospital, a private tertiary care hospital located in Takoma Park, Md. The institutional review boards of each facility approved the study, and all volunteers provided written, informed consent. Included subjects were men and women ≧30 years old with either known atherosclerotic coronary or vascular disease (N=279) or a coronary risk equivalent diagnosis including diabetes mellitus (N=38), a 10-year coronary heart disease Framingham risk score ≧20% (N=26), or a coronary calcium score above 200 or 400 (N=20) for women and men respectively.
Randomization: Three hundred sixty-three patients were enrolled in the trial. […] Randomization was performed using a computer-generated sequence of random numbers. There were no protocol-directed changes in statin medications during the study.
Cardiovascular risk variables: Following an overnight fast, laboratory measurements included plasma total cholesterol, LDL-C, HDL-C, triglycerides, C-reactive protein, liver-associated enzymes and glucose at baseline, 2, 8 and 14 months. LDL-C was measured using a direct assay. C-reactive protein was measured with a high-sensitivity, commercially available immunoturbidimetric assay, which uses monoclonal antibodies to CRP (Roche Cobas® Integra, Switzerland).

[3] = system: statin-treated patients with atherosclerotic coronary or vascular disease or coronary risk equivalent; test: Carotid B-mode ultrasound: change in carotid intima-media thickness (CIMT), ARBITER 6-HALTS trial; assay type: in vivo, human; settings: for Change in CIMT: 8 and 14 months; for Change in CIMT / Change in CIMT - Mean CIMT / Change in CIMT - Max CIMT: added to statin; for Change in CIMT - Mean CIMT / Change in CIMT - Max CIMT / Change in mean CIMT / Change from baseline CIMT, maximal thickness / Change from baseline CIMT, mean thickness: mean ± SE; for Change in mean CIMT: LOCF; for Effect of increased cumulative drug exposure on CIMT: exploratory analysis, quartiles of adherence × dose × duration; for Change from baseline CIMT, maximal thickness / Change from baseline CIMT, mean thickness: last observation carried forward, all subjects (ezetimibe n=161, niacin n=154)
Excerpt: as §1
Carotid B-mode Ultrasound: Carotid ultrasonography was performed using a Sonosite Micromax ultrasound system (Bothell, Wash.) equipped with a broadband linear array probe (13 MHz). Participants underwent 3 ultrasound examinations during the study at baseline, 8 and 14 months. Except for the initial 20 baseline examinations performed at the Washington Adventist site, a single sonographer performed all ultrasound examinations. Images were obtained of the far wall of the distal 1 centimeter of the right and left common carotid arteries in the anterior and lateral views. A total of eight images (2 complete sets of 4 separate images) were obtained with standardized ultrasound settings. Baseline CIMT images were used to localize the site of imaging in serial images. Digitized still images from an electrocardiographically-defined diastolic frame were quantitated off-line. A single observer unaware of treatment assignment and patient identification performed measurements of mean and maximal CIMT. Focal atherosclerotic plaque was excluded from the site of CIMT measurement. All measurements were performed in duplicate using an automated border detection algorithm. […] Reader drift was evaluated using a standard image set (10 CIMT images from different patients) which the sonographer serially quantified every 6 months.
Statistical analysis: The primary endpoint was the change in mean CIMT from baseline to 14 months between the niacin and ezetimibe treatment groups. […] Clinical and carotid imaging data were held in separate databases for the duration of the trial. Between-group data for continuous variables were assessed with a t-test for independent variables or a Mann-Whitney U test as appropriate. A chi-square test was used for categorical variables. Kaplan-Meier survival analysis was performed using the log rank test. All statistical analyses were performed using SPSS software (version 16, SPSS Inc., Chicago, Ill.). Values are reported as mean±standard deviation or standard error, and median (inter-quartile range) for non-normal distributions. A 2-sided P value of 0.05 was considered statistically significant.
Study design: The study design prespecified the performance of a blinded, interim analysis according to the conservative method of O'Brien and Fleming with an alpha spending function (O'Brien et al. 1979). This was conducted after 180 subjects (60% of the planned sample size) completed the study. An independent data advisory committee evaluated the endpoint data without knowledge of treatment assignment. No formal, a priori stopping boundaries were set for the trial.

[4] = system: statin-treated patients with atherosclerotic coronary or vascular disease or coronary risk equivalent; settings: for Deaths: of 176 ezetimibe / of 187 niacin enrolled
Excerpt: as §1

[5] = 2 Months, 208 subjects who completed 14 month study
[6] = 8 months from baseline, 208 completers (ezetimibe N=111, niacin N=97)
[7] = 8 months from baseline, 208 completers
[8] = 14 months from baseline, completing subjects (ezetimibe n=111, niacin n=97)
[9] = Quartile 1 (lowest) of cumulative drug exposure (adherence × dose × treatment duration)
[10] = Quartile 2 of cumulative drug exposure
[11] = Quartile 3 of cumulative drug exposure
[12] = Quartile 4 (highest) of cumulative drug exposure, 14 months
[13] = both, human, in vivo, 14 months

O=C(O)c1cccnc1 [Niacin, niacin]
Incidence of major adverse cardiovascular events [1]: 1.3% | Cardiovascular death (number of events) [1]: 1 | Coronary revascularization procedure (number of events) [1]: 0 | Myocardial infarction (number of events) [1]: 1 | Subjects experiencing a composite clinical cardiovascular endpoint (major adverse cardiovascular events) [1]: 2 subjects | HDL-C ([2]; 2 Months, 208 completers): 48.9 ± 10.6 mg/dL | LDL-C ([2]; 2 Months, 208 completers): 66.2 ± 18.1 mg/dL | C-reactive protein ([2]; 2 Months, 208 completers): 1.1 (0.6-3.1) mg/L | Triglycerides ([2]; 2 Months, 208 completers): 88 (69-125) mg/dL | Total Cholesterol [2, 5]: 131.0 ± 22.9 mg/dL | HDL-C ([2]; 8 Months, 208 completers): 50.7 ± 11.6 mg/dL | LDL-C ([2]; 8 Months, 208 completers): 67.1 ± 19.5 mg/dL | Total Cholesterol ([2]; 8 Months, 208 completers): 133.6 ± 25.5 mg/dL | C-reactive protein ([2]; 8 Months, 208 completers): 1.1 (0.5-2.4) mg/L | Triglycerides ([2]; 8 Months, 208 completers): 88 (66-123) mg/dL | HDL-C ([2]; 14 Months, 208 completers): 49.9 ± 12.2 mg/dL | LDL-C ([2]; 14 Months, 208 completers): 70.5 ± 23.9 mg/dL | Total Cholesterol ([2]; 14 Months, 208 completers): 136.7 ± 29.3 mg/dL | C-reactive protein ([2]; 14 Months, 208 completers): 1.0 (0.4-2.9) mg/L | Triglycerides ([2]; 14 Months, 208 completers): 90 (69-138) mg/dL | Change from baseline in LDL-C and triglycerides [2]: Significant reductions | Final change in HDL-C ([2]; 208 completers): +7.5±9.2 mg/dL | Final change in LDL-C ([2]; 208 completers): -10.0 ± 24.5 mg/dL | Total cholesterol, final values [2]: 137.6 ± 30.5 mg/dL | HDL-C, final values [2]: 49.7 ± 11.5 mg/dL | LDL-C, final values [2]: 72.7 ± 25.9 mg/dL | Triglycerides, final values [2]: 91 (69-134) mg/dl | hsCRP, final values [2]: 1.0 (0.4-2.3) mg/l | Change in CIMT ([3]; 208 completers): significant reduction in mean and maximal CIMT (regression) | Change in CIMT - Mean CIMT [3, 6]: −0.0102 ± 0.0030 mm | Change in CIMT - Max CIMT [3, 7]: −0.0128 ± 0.0043 mm | Change in CIMT - Max CIMT [3, 8]: −0.0181 ± 0.0050 mm | Change in CIMT - Mean CIMT [3, 8]: −0.0142 ± 0.0041 mm | Change in CIMT - Mean CIMT ([3]; 14 months from baseline, completing subjects (ezetimibe n=111, niacin n=97), listed as ERN): −0.0142±0.0041 mm | Change in mean CIMT [3, 9]: −0.0052 ± 0.0041 mm | Change in mean CIMT [3, 10]: −0.0073 ± 0.0027 mm | Change in mean CIMT [3, 11]: −0.0148 ± 0.0060 mm | Change in mean CIMT [3, 12]: −0.0128 ± 0.0078 mm | Change in mean CIMT ([3]; Quartile 4 (highest) of cumulative drug exposure, 14 months, listed as ERN): −0.0128±0.0078 mm | Effect of increased cumulative drug exposure on CIMT [3]: regression of CIMT | Change from baseline CIMT, maximal thickness [3]: −0.0124 ± 0.0036 mm | Change from baseline CIMT, mean thickness [3]: −0.0102 ± 0.0026 mm | Change from baseline CIMT, maximal thickness ([3]; listed as niacin): −0.0124±0.0036 mm | Change from baseline CIMT, mean thickness ([3]; listed as niacin): −0.0102±0.0026 mm | Cutaneous flushing reported [4, 13]: 36.1% | Subjects who did not complete the study ([4]; in vivo): 28 | Subjects who did not complete the study (percent) ([4]; in vivo): 14.9% | Withdrawals ([4]; in vivo): 27 | Withdrawals with adverse drug effects cited as the reason ([4]; of 9 ezetimibe / of 27 niacin withdrawals): 17 | Deaths [4]: 1

O=C1[C@H](CC[C@H](O)c2ccc(F)cc2)[C@@H](c2ccc(O)cc2)N1c1ccc(F)cc1 [Ezetimibe, ezetimibe]
Incidence of major adverse cardiovascular events [1]: 5.8% | Cardiovascular death (number of events) [1]: 5 | Coronary revascularization procedure (number of events) [1]: 3 | Myocardial infarction (number of events) [1]: 3 | Subjects experiencing a composite clinical cardiovascular endpoint (major adverse cardiovascular events) [1]: 9 subjects | HDL-C ([2]; 2 Months, 208 completers): 42.2 ± 8.5 mg/dL | LDL-C ([2]; 2 Months, 208 completers): 60.1 ± 16.1 mg/dL | C-reactive protein ([2]; 2 Months, 208 completers): 1.2 (0.6-3.0) mg/L | Triglycerides ([2]; 2 Months, 208 completers): 100 (78-140) mg/dL | Total Cholesterol [2, 5]: 120.2 ± 20.6 mg/dL | HDL-C ([2]; 8 Months, 208 completers): 41.1 ± 9.0 mg/dL | LDL-C ([2]; 8 Months, 208 completers): 61.6 ± 17.2 mg/dL | Total Cholesterol ([2]; 8 Months, 208 completers): 122.4 ± 21.5 mg/dL | C-reactive protein ([2]; 8 Months, 208 completers): 1.3 (0.6-2.9) mg/L | Triglycerides ([2]; 8 Months, 208 completers): 107 (78-153) mg/dL | HDL-C ([2]; 14 Months, 208 completers): 40.5 ± 7.9 mg/dL | LDL-C ([2]; 14 Months, 208 completers): 66.1 ± 18.8 mg/dL | Total Cholesterol ([2]; 14 Months, 208 completers): 127.8 ± 22.8 mg/dL | C-reactive protein ([2]; 14 Months, 208 completers): 0.6 (0.6-3.1) mg/L | Triglycerides ([2]; 14 Months, 208 completers): 113 (84-150) mg/dL | Change from baseline in LDL-C and triglycerides [2]: Significant reductions | Final change in HDL-C ([2]; 208 completers): -2.8 ± 5.7 mg/dL | Final change in LDL-C ([2]; 208 completers): -17.6 ± 20.1 mg/dL | Total cholesterol, final values [2]: 127.5 ± 24.8 mg/dL | HDL-C, final values [2]: 41.1 ± 8.5 mg/dL | LDL-C, final values [2]: 65.5 ± 20.0 mg/dL | Triglycerides, final values [2]: 111 (82-144) mg/dl | hsCRP, final values [2]: 1.0 (0.5-2.9) mg/l | Change in CIMT ([3]; 208 completers): No net change | Change in CIMT - Mean CIMT [3, 6]: 0.0014 ± 0.0020 mm | Change in CIMT - Max CIMT [3, 7]: −0.0028 ± 0.0031 mm | Change in CIMT - Max CIMT [3, 8]: −0.0009 ± 0.0039 mm | Change in CIMT - Mean CIMT [3, 8]: −0.0007 ± 0.0035 mm | Change in mean CIMT [3, 9]: −0.0071 ± 0.0031 mm | Change in mean CIMT [3, 10]: −0.0051 ± 0.0036 mm | Change in mean CIMT [3, 11]: −0.0009 ± 0.0067 mm | Change in mean CIMT [3, 12]: 0.0067 ± 0.0059 mm | Change in mean CIMT ([3]; Quartile 4 (highest) of cumulative drug exposure, 14 months, listed as ezetimibe): 0.0067±0.0059 mm | Effect of increased cumulative drug exposure on CIMT [3]: progression of CIMT | Change from baseline CIMT, maximal thickness [3]: −0.0005 ± 0.0029 mm | Change from baseline CIMT, mean thickness [3]: −0.0016 ± 0.0024 mm | Change from baseline CIMT, maximal thickness ([3]; listed as ezetimibe): −0.0005±0.0029 mm | Change from baseline CIMT, mean thickness ([3]; listed as ezetimibe): −0.0016±0.0024 mm | Withdrawals with adverse drug effects cited as the reason [4, 13]: 3 | Subjects who did not complete the study ([4]; in vivo): 16 | Subjects who did not complete the study (percent) ([4]; in vivo): 9.1% | Withdrawals ([4]; in vivo): 9 | Deaths [4]: 7
